Measurements: patent US20190159450A1, “PYRIDINE-BASED COMPOUND INCLUDING ISOXAZOLINE RING AND USE THEREOF AS HERBICIDE” (MOGHU RESEARCH CENTER LTD., priority 2016, published 2019)

How the values were obtained:
Type in all cases: in vivo
maize [1] = test: Herbicidal activity test, pre-weeds emergence treatment (crop damage); conditions: assessed 2 to 3 weeks after spraying, scale 0-10 (0: no effect, 10: complete death)
Method: (§1) A rectangular plastic pot with a surface area of 300 cm^2 was filled with sandy loam soil and mixed soil at a ratio of 1:1, and four kinds of weeds including Quamoclit pennata, Abutilon theophrasti Medicus, and Aeschynomene indica, Xanthium strumarium were sown therein. In another pot made in the same way, three kinds of crop seeds including maize, wheat, and rice were sown. The pots were watered and one day later, a medicament was sprayed thereon. The spraying was performed by using a track sprayer (R&D Sprayer, USA) equipped with Teejet 8002EVS (Spraying Systems Co., USA) nozzle, and the spray amount was controlled to be 1000 L/ha. A spray solution was prepared by dissolving the compound of each example or a control material in acetone, and then, adding the same amount of 0.1% (v/v) tween 20 aqueous solution thereto. The spray amount was 200 g/ha. The pots were placed in a greenhouse in which the temperature was maintained at 25° C. to 30° C. during the day and 15° C. to 25° C. during the night, and was regularly watered. After 2 to 3 weeks from the spraying of the compounds or the control material, the efficacy and the damages on each weed and each crop were assessed according to the scale of 0-10 (0: no effect, 10: complete death) scale and the results are shown in Table 3 below.
(§2) Pots for crops and weeds were prepared in the same manner as the test method illustrated in Table 3, and three kinds of weeds selected from Quamoclit pennata, Abutilon theophrasti Medicus, and Aeschynomene indica, Xanthium strumarium were used.

rice [2] = test: as above; conditions: assessed 2 to 3 weeks after spraying, scale 0-10 (0: no effect, 10: complete death)
Method: as §1, §2

wheat [3] = test: as above; conditions: assessed 2 to 3 weeks after spraying, scale 0-10 (0: no effect, 10: complete death)
Method: as §1, §2

[4] = tested on: Abutilon theophrasti Medicus; test: Herbicidal activity test, pre-weeds emergence treatment; conditions: assessed 2 to 3 weeks after spraying, scale 0-10 (0: no effect, 10: complete death)
Method: as §1, §2

Aeschynomene indica [5] = test: as above; conditions: assessed 2 to 3 weeks after spraying, scale 0-10 (0: no effect, 10: complete death)
Method: as §1, §2

Quamoclit pennata [6] = test: as above; conditions: assessed 2 to 3 weeks after spraying, scale 0-10 (0: no effect, 10: complete death)
Method: as §1, §2

Xanthium strumarium [7] = test: as above; conditions: assessed 2 to 3 weeks after spraying, scale 0-10 (0: no effect, 10: complete death)
Method: as §1, §2

maize [8] = test: Herbicidal activity test, post-weeds emergence treatment (crop damage); conditions: assessed after 2 to 3 weeks, 0: no effect, 10: complete death
Method: as §1
(§3) Pots for crops and weeds were prepared in the same manner as in Experimental Example 1, and then, when the crops and the weeds were raised up to 2 weeks roughly on a third-leaf stage, the compounds and the control material were sprayed thereon in the same manner as described above. The spray amount was 200 g/ha. After 2 to 3 weeks from the spraying of the test substance or the control substance, the efficacy and the damages on each weed and each crop were assessed according to the scale of 0-10 (0: no effect, 10: complete death) scale.
as §2, with “5,” for “3,”, “four” for “three”, “used. The spray amount was 200 g/ha for crops and 50 g/ha for weeds.” for “used.”

rice [9] = test: as above; conditions: assessed after 2 to 3 weeks, 0: no effect, 10: complete death
Method: as §1, §3
as §2, with “5,” for “3,”, “four” for “three”, “used. The spray amount was 200 g/ha for crops and 50 g/ha for weeds.” for “used.”

wheat [10] = test: as above; conditions: assessed after 2 to 3 weeks, 0: no effect, 10: complete death
Method: as §1, §3
as §2, with “5,” for “3,”, “four” for “three”, “used. The spray amount was 200 g/ha for crops and 50 g/ha for weeds.” for “used.”

[11] = tested on: Abutilon theophrasti Medicus; test: Herbicidal activity test, post-weeds emergence treatment; conditions: assessed after 2 to 3 weeks, 0: no effect, 10: complete death
Method: as §1, §3
as §2, with “5,” for “3,”, “four” for “three”, “used. The spray amount was 200 g/ha for crops and 50 g/ha for weeds.” for “used.”

Aeschynomene indica [12] = test: as above; conditions: assessed after 2 to 3 weeks, 0: no effect, 10: complete death
Method: as §1, §3
as §2, with “5,” for “3,”, “four” for “three”, “used. The spray amount was 200 g/ha for crops and 50 g/ha for weeds.” for “used.”

Quamoclit pennata [13] = test: as above; conditions: assessed after 2 to 3 weeks, 0: no effect, 10: complete death
Method: as §1, §3
as §2, with “5,” for “3,”, “four” for “three”, “used. The spray amount was 200 g/ha for crops and 50 g/ha for weeds.” for “used.”

Xanthium strumarium [14] = test: as above; conditions: assessed after 2 to 3 weeks, 0: no effect, 10: complete death
Method: as §1, §3
as §2, with “5,” for “3,”, “four” for “three”, “used. The spray amount was 200 g/ha for crops and 50 g/ha for weeds.” for “used.”

[15] = spray amount 200 g/ha for crops, Table 6
[16] = spray amount 50 g/ha for weeds, Table 6

| Structure (SMILES) | PRE ZEAMX (maize), damage score (maize [1]; Table 4, 200 g/ha) | PRE ORYSA (rice), damage score (rice [2]; Table 4, 200 g/ha) | PRE TRZAW (wheat), damage score (wheat [3]; Table 4, 200 g/ha) | PRE ABUTH (Abutilon theophrasti Medicus), efficacy score ([4]; Table 4, 200 g/ha) | PRE AESIN (Aeschynomene indica), efficacy score (Aeschynomene indica [5]; Table 4, 200 g/ha) | PRE IPOAN (Quamoclit pennata), efficacy score (Quamoclit pennata [6]; Table 4, 200 g/ha) | PRE XANST (Xanthium strumarium), efficacy score (Xanthium strumarium [7]; Table 4, 200 g/ha) | ZEAMX (maize) damage, scale of 0-10 (maize [8]; [15]) | ORYSA (rice) damage, scale of 0-10 (rice [9]; [15]) | TRZAW (wheat) damage, scale of 0-10 (wheat [10]; [15]) | ABUTH (Abutilon theophrasti Medicus) herbicidal efficacy, scale of 0-10 [11, 16] | AESIN (Aeschynomene indica) herbicidal efficacy, scale of 0-10 (Aeschynomene indica [12]; [16]) | IPOAN (Quamoclit pennata) herbicidal efficacy, scale of 0-10 (Quamoclit pennata [13]; [16]) | XANST (Xanthium strumarium) herbicidal efficacy, scale of 0-10 (Xanthium strumarium [14]; [16]) | also measured |
| --- | --- | --- | --- | --- | --- | --- | --- | --- | --- | --- | --- | --- | --- | --- | --- |
| COC(=O)c1nc(C2CC(C(F)(F)F)=NO2)cc(NC(C)=O)c1Cl (centres unmarked) [Compound 4, methyl 4-acetamido-3-chloro-6-(3-(trifluoromethyl)-4,5-dihydroisoxazol-5-yl)picolinate] |  |  |  |  |  |  |  |  |  |  |  |  |  |  | PRE ZEAMX (maize), damage score (maize [1]; Table 3, 200 g/ha): 0; PRE ORYSA (rice), damage score (rice [2]; Table 3, 200 g/ha): 0; PRE TRZAW (wheat), damage score (wheat [3]; Table 3, 200 g/ha): 0; PRE ABUTH (Abutilon theophrasti Medicus), efficacy score ([4]; Table 3, 200 g/ha): 6; PRE AESIN (Aeschynomene indica), efficacy score (Aeschynomene indica [5]; Table 3, 200 g/ha): 8; PRE IPOAN (Quamoclit pennata), efficacy score (Quamoclit pennata [6]; Table 3, 200 g/ha): 7; PRE XANST (Xanthium strumarium), efficacy score (Xanthium strumarium [7]; Table 3, 200 g/ha): 6; ZEAMX (maize) damage, scale of 0-10 (maize [8]; spray amount 200 g/ha, Table 5): 0; ORYSA (rice) damage, scale of 0-10 (rice [9]; spray amount 200 g/ha, Table 5): 0; TRZAW (wheat) damage, scale of 0-10 (wheat [10]; spray amount 200 g/ha, Table 5): 0; ABUTH (Abutilon theophrasti Medicus) herbicidal efficacy, scale of 0-10 ([11]; spray amount 200 g/ha, Table 5): 3; AESIN (Aeschynomene indica) herbicidal efficacy, scale of 0-10 (Aeschynomene indica [12]; spray amount 200 g/ha, Table 5): 10; IPOAN (Quamoclit pennata) herbicidal efficacy, scale of 0-10 (Quamoclit pennata [13]; spray amount 200 g/ha, Table 5): 3; XANST (Xanthium strumarium) herbicidal efficacy, scale of 0-10 (Xanthium strumarium [14]; spray amount 200 g/ha, Table 5): 8 |
| Nc1cc(C2CC(Br)=NO2)nc(C(=O)OCc2ccccc2)c1Cl (centres unmarked) [Compound 86, benzyl 4-amino-3-chloro-6-(3-bromo-4,5-dihydroisoxazol-5-yl)picolinate] | 0 | 0 | 0 | 3 | 6 | 3 | 2 | 0 | 3 | 0 | 4 | 2 | 5 | 8 |  |
| CC1(c2cc(N)c(Cl)c(C(=O)O)n2)CC(Br)=NO1 (centres unmarked) [Compound 54, 4-amino-3-chloro-6-(3-bromo-5-methyl-4,5-dihydroisoxazol-5-yl)picolinic acid] | 0 | 0 | 0 | 10 | 10 | 5 | 8 | 0 | 0 | 0 | 4 | 6 | 5 | 8 |  |
| Nc1cc(C2CC(Cl)=NO2)nc(C(=O)OCc2ccccc2)c1Cl (centres unmarked) [Compound 95, benzyl 4-amino-3-chloro-6-(3-chloro-4,5-dihydroisoxazol-5-yl)picolinate] | 0 | 6 | 0 | 10 | 10 | 0 | 10 | 1 | 1 | 1 | 10 | 10 | 8 | 10 |  |
